Measurements as given in patent EP0326331B1, “Substituted quinolines and cinnolines” (Dow AgroSciences LLC, priority 1988, dated 1989).

Columns and labels:
Type in all cases: in vivo
[1] = test system: Erysiphe graminis tritici (powdery mildew); experiment: Test 1 greenhouse foliar spray screen, powdery mildew on wheat; details: disease control rating, foliar spray on wheat, 400 ppm (+++ at 100 ppm)
[2] = test system: corn rootworm; experiment: Mite/insect screen, CRW; details: percent mortality, read-out: CRW RESULTS %; for mortality at 12 ppm: CRW rate 12.00 ppm; for mortality at 24 ppm: CRW rate 24.00 ppm
Method in brief: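 Stock in acetone:alcohol 1:1 + TOXIMUL R 23 g/L + TOXIMUL S 13 g/L; diluted with water to indicated concentrations; mortality (%) after standard exposure.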

[3] = test system: Septoria tritici (leaf blotch); experiment: Test 1 greenhouse foliar spray screen, leaf blotch on wheat; details: disease control rating, foliar spray on wheat, 400 ppm (+++ at 100 ppm)
[4] = test system: melon aphids (Aphis gossypii Glover); experiment: Mite/insect screen, MA; details: Aphis gossypii, foliar, percent mortality, foliar spray on squash, read-out: MA RESULTS %; for mortality at 200 ppm: rate 200 ppm; for mortality at 400 ppm: rate 400 ppm
Method in brief: (§1)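 First, each compound was dissolved in an emulsifier-containing acetone/alcohol mixture and diluted with water. Next, leaves were sprayed until runoff and left to dry for an hour. For southern armyworm, two excised uninfested leaves went into a Petri dish with larvae; percent mortality followed standard exposure periods.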

[5] = test system: Venturia inaequalis (apple scab); experiment: Test 1 greenhouse foliar spray screen, apple scab on apple seedling; details: disease control rating, foliar spray on apple seedling, 400 ppm (+++ at 100 ppm)
[6] = test system: Pseudoperonospora cubensis (downy mildew); experiment: Test 1 greenhouse foliar spray screen, downy mildew on squash; details: disease control rating, foliar spray on squash, 400 ppm (+++ at 100 ppm)
[7] = test system: southern armyworm (Spodopetra eridania Cramer); experiment: Mite/insect screen, SAW; details: Spodoptera eridania, foliar, percent mortality, foliar spray on squash, read-out: SAW RESULTS %; for mortality at 200 ppm: rate 200 ppm; for mortality at 400 ppm: rate 400 ppm
Method in brief: as §1

[8] = test system: Botrytis cinerea (gray mold); experiment: Test 1 greenhouse foliar spray screen, gray mold on grape berries; details: disease control rating, spray on grape berries, 400 ppm (+++ at 100 ppm)
[9] = test system: Pyricularia oryzae (rice blast); experiment: whole plant or invertebrate; details: disease control rating, foliar spray on rice, 400 ppm (+++ at 100 ppm)
[10] = test system: Twospotted spider mites (Tetranychus urticae Koch); experiment: Mite/insect screen, SM; details: Tetranychus urticae, foliar, percent mortality, foliar spray on squash, read-out: SM RESULTS %; for mortality at 200 ppm: rate 200 ppm; for mortality at 400 ppm: rate 400 ppm
Method in brief: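 Read-out: percent mortality after standard exposure periods. Test solutions were water dilutions of compound dissolved in acetone/alcohol (50:50) with emulsifier blends; leaves were sprayed to runoff on both surfaces and air-dried for one hour before exposure.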

[11] = test system: Puccinia recondita tritici (leaf rust); experiment: Test 1 greenhouse foliar spray screen, leaf rust on wheat; details: disease control rating, foliar spray on wheat, 400 ppm (+++ at 100 ppm)
[12] = test system: Cercospora beticola (leaf spot); experiment: Test 1 greenhouse foliar spray screen, leaf spot on sugar beet; details: disease control rating, foliar spray on sugar beet, 400 ppm (+++ at 100 ppm)

| Compound | POWD MDEW [1] | mortality at 12 ppm [2] | LEAF BLOT [3] | mortality at 200 ppm [4] | APPL SCAB [5] | DOWN MDEW [6] | mortality at 200 ppm [7] | GRAY MOLD [8] | RICE BLAST [9] | mortality at 200 ppm [10] | LEAF RUST [11] | LEAF SPOT [12] | mortality at 24 ppm [2] | mortality at 400 ppm [4] | mortality at 400 ppm [7] | mortality at 400 ppm [10] |
| --- | --- | --- | --- | --- | --- | --- | --- | --- | --- | --- | --- | --- | --- | --- | --- | --- |
| Fc1cccc2c(NCCc3ccsc3)ccnc12 [Example 175, 8-fluoro-N-[2-(3-thienyl)ethyl]-4-quinolinamine] | + (20-89% control at 400 ppm) | 0% | + (20-89% control at 400 ppm) | 0% | - (0-19% control at 400 ppm) | +++ (90-100% control at 100 ppm) | 0% | - (0-19% control at 400 ppm) | + (20-89% control at 400 ppm) | 0% | +++ (90-100% control at 100 ppm) | - (0-19% control at 400 ppm) | – | – | – | – |
| Fc1cccc2c(NCCc3c[nH]c4ccccc34)ccnc12 [Example 176, 8-fluoro-N-[2-(1H-indol-3-yl)ethyl]-4-quinolinamine] | + (20-89% control at 400 ppm) | 0% | - (0-19% control at 400 ppm) | 0% | - (0-19% control at 400 ppm) | ++ (90-100% control at 400 ppm) | 0% | - (0-19% control at 400 ppm) | + (20-89% control at 400 ppm) | 0% | + (20-89% control at 400 ppm) | + (20-89% control at 400 ppm) | – | – | – | – |
| CC(=O)N(CCC1=CCCCC1)c1ccnc2c(C)cc(C)cc12 [Example 179, N-[2-(1-cyclohexenyl)ethyl]-N-(6,8-dimethyl-4-quinolinyl)acetamide] | - (0-19% control at 400 ppm) | 0% | - (0-19% control at 400 ppm) | 0% | + (20-89% control at 400 ppm) | ++ (90-100% control at 400 ppm) | 0% | - (0-19% control at 400 ppm) | - (0-19% control at 400 ppm) | 0% | - (0-19% control at 400 ppm) | + (20-89% control at 400 ppm) | 0% | 0% | 0% | 0% |
| Fc1cccc2c(NCCc3ccccn3)ccnc12 [Example 180, 8-fluoro-N-[2-(2-pyridinyl)ethyl]-4-quinolinamine] | ++ (90-100% control at 400 ppm) | 0% | + (20-89% control at 400 ppm) | 0% | - (0-19% control at 400 ppm) | ++ (90-100% control at 400 ppm) | 0% | - (0-19% control at 400 ppm) | + (20-89% control at 400 ppm) | 0% | - (0-19% control at 400 ppm) | + (20-89% control at 400 ppm) | 0% | 0% | 0% | 0% |
| Fc1cccc2c(NCCc3ccccc3)cc(NCCc3ccccc3)nc12 [Example 183, 8-fluoro-N,N'-bis(2-phenylethyl)-2,4-quinolinediamine] | - (0-19% control at 400 ppm) | 0% | - (0-19% control at 400 ppm) | 0% | + (20-89% control at 400 ppm) | +++ (90-100% control at 100 ppm) | 0% | - (0-19% control at 400 ppm) | ++ (90-100% control at 400 ppm) | 0% | ++ (90-100% control at 400 ppm) | + (20-89% control at 400 ppm) | – | – | – | – |
| CC(CNc1cc(NCC(C)c2ccccc2)c2ccccc2n1)c1ccccc1 (centres unmarked) [Example 184, N,N'-bis(2-phenylpropyl)-2,4-quinolinediamine] | - (0-19% control at 400 ppm) | 0% | - (0-19% control at 400 ppm) | 0% | - (0-19% control at 400 ppm) | ++ (90-100% control at 400 ppm) | 0% | - (0-19% control at 400 ppm) | + (20-89% control at 400 ppm) | 0% | ++ (90-100% control at 400 ppm) | - (0-19% control at 400 ppm) | – | – | – | – |
